Source: patent US6974837B2, “Compositions comprising sibutramine metabolites in combination with phosphodiesterase inhibitors” (Sepracor Inc., priority 1999, dated 2005)
Where two headings read alike, the source gives them in different places.

Legend:
[1] = target: human recombinant norepinephrine (NE) uptake site (Homo sapiens, UniProt P23975); assay: Binding at the norepinephrine (NE) uptake site
[2] = target: nonselective muscarinic receptor; assay: Binding at the nonselective muscarinic receptor; set-up: species or system rat; settings: for IC50: rat cerebral cortex
[3] = target: serotonin (5-HT) uptake site (Rattus norvegicus, UniProt P31652)
Chain of serotonin (5-HT) uptake site (P31652 whole entry): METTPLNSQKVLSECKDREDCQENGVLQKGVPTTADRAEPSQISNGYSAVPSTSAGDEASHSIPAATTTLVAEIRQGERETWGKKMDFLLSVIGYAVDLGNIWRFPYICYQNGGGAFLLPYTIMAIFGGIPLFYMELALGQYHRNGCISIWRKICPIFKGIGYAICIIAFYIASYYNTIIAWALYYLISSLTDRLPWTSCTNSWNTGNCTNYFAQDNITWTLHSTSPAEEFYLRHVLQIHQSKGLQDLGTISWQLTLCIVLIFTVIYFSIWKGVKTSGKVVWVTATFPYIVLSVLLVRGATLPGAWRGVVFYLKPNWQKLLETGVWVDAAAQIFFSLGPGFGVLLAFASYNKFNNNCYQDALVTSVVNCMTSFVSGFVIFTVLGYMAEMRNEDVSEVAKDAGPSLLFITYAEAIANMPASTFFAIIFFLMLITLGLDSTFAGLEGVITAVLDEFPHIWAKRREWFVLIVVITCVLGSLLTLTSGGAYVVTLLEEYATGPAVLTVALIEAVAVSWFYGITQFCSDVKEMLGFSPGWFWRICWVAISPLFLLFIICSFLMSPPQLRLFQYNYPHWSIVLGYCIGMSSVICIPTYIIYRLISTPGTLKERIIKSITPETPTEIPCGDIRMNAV

[4] = human recombinant NE uptake site, read-out: Binding IC50 NE Uptake

Chain of human recombinant norepinephrine (NE) uptake site (P23975 whole entry): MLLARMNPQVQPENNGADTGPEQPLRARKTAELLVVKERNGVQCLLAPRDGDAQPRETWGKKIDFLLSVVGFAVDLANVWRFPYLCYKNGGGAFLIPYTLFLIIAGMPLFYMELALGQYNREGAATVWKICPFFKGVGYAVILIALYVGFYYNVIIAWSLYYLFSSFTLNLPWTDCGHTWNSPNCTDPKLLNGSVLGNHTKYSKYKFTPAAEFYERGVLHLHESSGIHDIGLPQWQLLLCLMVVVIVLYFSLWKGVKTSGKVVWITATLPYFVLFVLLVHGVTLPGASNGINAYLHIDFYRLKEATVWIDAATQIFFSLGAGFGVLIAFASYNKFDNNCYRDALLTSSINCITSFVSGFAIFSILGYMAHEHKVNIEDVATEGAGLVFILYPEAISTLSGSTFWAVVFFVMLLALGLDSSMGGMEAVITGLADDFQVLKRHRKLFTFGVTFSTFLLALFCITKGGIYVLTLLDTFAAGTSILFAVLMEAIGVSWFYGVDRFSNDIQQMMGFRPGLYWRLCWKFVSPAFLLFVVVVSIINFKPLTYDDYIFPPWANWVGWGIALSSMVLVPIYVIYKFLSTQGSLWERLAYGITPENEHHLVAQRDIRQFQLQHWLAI

SMILES	IC50 [1]	IC50 [2]	NE uptake site binding / inhibition (in words) [1]	IC50 [1, 4]	5-HT uptake site binding / inhibition (in words) [3]	affinity / activity at muscarinic site (in words) [2]
CNC(CC(C)C)C1(c2ccc(Cl)cc2)CCC1 (racemic) [(R/S)-desMe, 1-(4-chlorophenyl)-N-methyl-2-(2-methylpropyl)-cyclobutanamethamine]	10 nM	1170 nM				
CN[C@H](CC(C)C)C1(c2ccc(Cl)cc2)CCC1 [(R)-desMe]			potent inhibitors	4 nM	potent inhibitors	negligible activity
CC(C)C[C@@H](N)C1(c2ccc(Cl)cc2)CCC1 [(R)-didesMe]			potent inhibitors	13 nM	potent inhibitors	negligible activity
CN[C@@H](CC(C)C)C1(c2ccc(Cl)cc2)CCC1 [(S)-desMe]	870 nM	654 nM				
CN1[C@@H]2CC[C@H]1C[C@@H](OC(=O)C(CO)c1ccccc1)C2 (stereo partly shown) [Atropine, reference compound]		0.31 nM				
